Experimental data taken from patent US8952033B2, “4-anilinofuro[2,3-b]quinoline derivatives, their preparation processes, and pharmaceutical compositions comprising the same” (Kaohsiung Medical University, priority 2011, dated 2015).
Values after ≈ are worked out from the molar mass of the structure shown. Marks after values point to notes of the source that are not given here.

Assays:
[1] = tested on: MCF-7 (breast cancer cell); test: MTT antiproliferative assay (cell growth %, GI50), MCF-7; assay type: cell-based; conditions: Homo sapiens, MCF7, 48 hours, MTT; for activity at 4000 µg/mL: 4 mg/ml; for activity at 20000 µg/mL: 20 mg/ml
Method: (§1) Antiproliferative activities of the compounds of this invention were evaluated substantially according to the method as described in Tseng, C. […] The cells were treated with the test compounds, i.e., the compounds of this invention (in dimethylsulfoxide (DMSO)), or DMSO for 48 hours.
(§2) Before and after the treatment with the test compounds or DMSO, 3-(4,5-dimethylthiazol-2-yl)-2,5-diphenyltetrazolium bromide (MTT, 2 mg/mL, 100 μL) was added to each of the cultures, followed by cultivation for 2 hours. The resultant formazan was dissolved by the addition of DMSO. Absorbance at 570 nm (OD570) was measured using a microtiter plate reader (Dynex MRX-II).
(§3) Determination of GI50 was conducted thrice for each test compound. GI50 is expressed as mean±SD.

[2] = tested on: NCI-H460 (non-small cell lung carcinoma cell); test: MTT antiproliferative assay (cell growth %, GI50), NCI-H460; assay type: cell-based; conditions: Homo sapiens, NCI-H460, 48 hours, MTT; for activity at 4000 µg/mL: 4 mg/ml; for activity at 20000 µg/mL: 20 mg/ml
Method: as §1, §2, §3

[3] = in vitro anticancer assay, earlier work of the applicants; cited from earlier work
[4] = Determination of solubility in water; assay type: physicochemical; conditions: water, 25 °C, thermodynamic from solid; 25±0.1° C., stirred overnight, UV-VIS
Method: Determination of solubility in water was conducted substantially according to the method as described in Vougogiannopoulou, K. et al. (2008), J. Med. Chem., 51:6421-6431. An excess amount of the respective test compound was added into water, followed by sonication for 5 minutes. The resultant mixture was stirred at ambient temperature (25±0.1° C.) overnight. Centrifugation at 4000 rpm and 25° C. was conducted for 5 minutes. Absorbance of the sample of the respective test compound was measured at 315-420 nm using a UV-VIS spectrophotometer (JASCO UV-Visible V570). For each test compound, a standard curve was generated by plotting concentrations of standard solutions and the corresponding absorbances. The absorbance of the sample of each test compound was then converted to solubility in water (μg/mL) using the corresponding standard curve.

[5] = Single-dose pharmacokinetic analysis in CD-1 mice; assay type: in vivo
Method: CD-1 mice were divided into two groups. The first group of mice (n=9) were used to assess the singe-dose pharmacokinetics of the test compounds after intravenous administration, and the second group of mice (n=9) were utilized to assess the singe-dose pharmacokinetics of the test compounds after oral administration. All of the mice were fasted from 4 hours before the administration of the test compounds until 4 hours after the administration of the test compounds.
The assessment for singe-dose pharmacokinetics of the test compounds after intravenous administration was performed as follows. The first group of mice were further randomly divided into three subgroups including compound 13a group (n=3), compound 14a group (n=3), and compound 1 group (n=3). Compounds 13a, 14a, 1 (in polyethylene glycol 400/ethanol/water (30/5/65, v/v/v)) were respectively administered to the mice in compound 13a group, compound 14a group, and compound 1 group at a dose of 2 mg/kg via tail vein injection. Blood samples (0.25 mL) were collected from the mice by virtue of cardiac puncture right before the intravenous administration, and at 2 min, 5 min, 15 min, 30 min, 1 hr, 1.5 hr, 2 hr, 4 hr, 6 hr, 9 hr, 24 hr, and 27 hr after the intravenous administration.
The assessment for singe-dose pharmacokinetics of the test compounds after oral administration was conducted as follows. The second group of mice were further randomly divided into three subgroups including compound 13a group (n=3), compound 14a group (n=3), and compound 1 group (n=3). Compounds 13a, 14a, 1 (in 0.5% methylcellulose) were respectively administered to the mice in compound 13a group, compound 14a group, and compound 1 group at a dose of 20 mg/kg via tube feeding. Blood samples (0.25 mL) were collected from the mice by virtue of cardiac puncture right before the oral administration, and at 15 min, 30 min, 1 hr, 1.5 hr, 2 hr, 4 hr, 6 hr, 9 hr, 24 hr, and 27 hr after the oral administration.
Each of the blood samples was placed in a 0.5 mL Microtainer® tube containing anticoagulant EDTA-K2, followed by mixing evenly. Centrifugation at 7000 g and 4° C. was conducted for 5 minutes. Plasma was collected and was mixed uniformly with a proper amount of acetonitrile, followed by centrifugation. The resultant supernatant was acquired, and was injected into a reversed-phase Biosil ODS column so as to determine the concentration of the respective test compound in plasma (i.e., the plasma concentration of the respective test compound) using a LC-MS/MS system (Waters 2795 LC and Micromass Quattro Ultima). The singe-dose pharmacokinetic parameters of the respective test compound were calculated from the obtained concentration of the respective test compound in plasma (i.e., the obtained plasma concentration of the respective compound) at different time points using WinNonlin Standard Program (version 3.1, Pharsight Corp.)

[6] = tested on: tubulin; conditions: Huang Y. T. et al. (2005); cited from earlier work
[7] = intravenous administration, 2 mg/kg

CO/N=C(\C)c1ccc(Nc2c3ccccc3nc3occc23)cc1 [Compound 3, (E)-1-(4-(furo[2,3-b]quinolin-4-ylamino)phenyl)ethanone O-methyloxime, reference compound]
activity at 4000 µg/mL [1]: 63%
activity at 20000 µg/mL [1]: 37%
activity at 4000 µg/mL [2]: 51%
activity at 20000 µg/mL [2]: 23%
Antiproliferative potency compared with amsacrine (m-AMSA) [3]: comparable to that of amsacrine
solubility [4]: 8 µg/mL (≈ 24.1 µM)

C/C(=N\O)c1ccc(Nc2c3ccccc3nc3occc23)cc1 [Compound 2, (E)-1-(4-(furo[2,3-b]quinolin-4-ylamino)phenyl)ethanone oxime, reference compound]
activity at 4000 µg/mL [1]: 64%
activity at 20000 µg/mL [1]: 58%
activity at 4000 µg/mL [2]: 27%
activity at 20000 µg/mL [2]: 21%
Antiproliferative potency compared with amsacrine (m-AMSA) [3]: comparable to that of amsacrine
solubility [4]: 10 µg/mL (≈ 31.5 µM)

CC(=O)c1ccc(Nc2c3ccccc3nc3occc23)cc1 [Compound 1, 1-(4-(furo[2,3-b]quinolin-4-ylamino)phenyl)ethanone, reference compound]
activity at 4000 µg/mL [1]: 69%
activity at 20000 µg/mL [1]: 61%
activity at 4000 µg/mL [2]: 33%
activity at 20000 µg/mL [2]: 30%
AUC(0-inf) [5, 7]: 211 ng·h/mL
CL [5, 7]: 158 mL/min/kg
MRT [5, 7]: 6 min
Time after which compound was unable to be detected in plasma [5, 7]: 1.5 h
Vss [5, 7]: 1.2 L/kg
Vz [5, 7]: 4.1 L/kg
Cmax ([5]; intravenous administration, 2 mg/kg, extrapolated plasma concentration at 0 hr): 3064 ng/mL
t1/2 ([5]; intravenous administration, 2 mg/kg, from 0.5-1.5 hr (compd. 1) or 9-27 hr (13a, 14a)): 0.3^b hr
Bioavailability ([5]; oral 20 mg/kg versus intravenous 2 mg/kg): 2.1%
AUC(0-inf) ([5]; oral administration, 20 mg/kg): 45 ng·h/mL
Cmax ([5]; oral administration, 20 mg/kg): 21 ng/mL
MRT ([5]; oral administration, 20 mg/kg): 162 min
Time after which compound was unable to be detected in plasma ([5]; oral administration, 20 mg/kg): 6 h
Tmax ([5]; oral administration, 20 mg/kg): 18 min
t1/2 ([5]; oral administration, 20 mg/kg, from 2-6 hr (compd. 1), 2-24 hr (13a), 2-9 hr (14a)): 2.0^c hr
Antiproliferative potency compared with amsacrine (m-AMSA) [3]: higher than that of amsacrine
solubility [4]: 6 µg/mL (≈ 19.8 µM)
Effect on tubulin [6]: binding to tubulin and inhibiting tubulin polymerization
